Data on four compounds can be found in patent US20050281904A1, “Kefir extract as an anti-cancer agent” (McGill University, priority 2000, published 2005).

Test [1] deals with MCF-7 cells. The test can be described thus: Cell proliferation experiments, MCF-7 cells (cell numbers after 8 days). The following applies: for antiproliferative effect on MCF-7 cells (dose effect): HPLC fractions or ceramide compounds alone. Format: cell-based, human. The protocol: MCF7-E3 human breast cancer estrogen-sensitive cells were provided by Dr. D. Desaulniers of Health Canada, Ottawa. Cells were routinely propagated as a monolayer culture in Dulbcco's Modified Eale Medium (DMEM) supplemented with 10% heat-inactivated fetal bovine serum (FBS), in 75-cm^2 plastic dish at 37° C. in a humidified atmosphere with 5% CO2, and passage 3-4 days a time. A normal human mammary epithelial cell line was provided by Dr. M. Stampfer of UC Livermore Labs. Cells were routinely propagated as a monolayer culture in Mammary Epithelial Growth Media (MEGM, Clonetics, San Diego) supplemented with 10% heat-inactivated fetal bovine serum (FBS), in 75-cm^2 plastic dish at 37° C. in a humidified atmosphere with 5% CO2, and passage every week. For the experiments, both cells were harvest from the dish using 0.25% trypsin-EDTA solution.
Four kefir products (K1-K4) collected at various stages of kefir production at Liberty Brand Products, Inc. (Montreal, Canada) were used in this study. The large-scale production of kefir involves a two-step fermentation process. The first step is to prepare the cultures by incubating milk with kefir grains (2-10%) (K1) and fermented for 24 hrs. The grains are then removed by filtration and the resulting mother culture (K2) is added to pasteurized milk (K3), which is further fermented for 12 hrs and this final product (K4) is packaged for the consumer market. A pasteurized milk sample (M1) and two yogurt products; mixture of yogurt bacteria, pasteurized milk and milk powder (Y1) and the final yogurt product after 12 hrs of fermentation (Y2) were included for comparison. The yeast and bacteria in the samples were removed by centrifugation and filtration. About 35 ml each of the seven samples was centrifuged (32,000×g, 60 min, 4° C.) and the supernatant was filtered through a 0.45 μm Millipore filter followed by a 0.2 μm Millipore filter (Millipore Corporation, Bedford, USA). Extracts from two separate batches of kefir and yogurt were used.
Cells previously harvested were seeded in 24-well plates; 10,000 cells for MCF-7 per well in DMEM supplemented with 10% FBS and 5,000 cells for HMEC per well in MEGM supplemented with 10% FBS. The cells were allowed to attach for 24 hours. […] Cells were incubated at 37° C. in a humidified atmosphere with 5% CO2 for 8 days and the cell numbers in each well were counted using a Coulter Counter (Coulter Counter Corporation, USA). […]
The cell numbers expressed as percentage of control from different treatments and dose were compared using two-way ANOVA. When the interaction between treatments and dose was also significant the difference between treatment groups was determined by Tukey's HSD multiple comparison test. […]

Test [2] relates to MCF-7 cells. The following applies: 1 μM; cited from earlier work.

Take `CCCCCCCCCCCCC/C=C/[C@@H](O)[C@H](CO)NC(=O)CCCCC` [C6 ceramide]: the “antiproliferative effect on MCF-7 cells (dose effect)” value in the test with MCF-7 cells [1] is on record as “strong dose dependent antiproliferative effect”. For the same compound, the “levels of angiogenesis stimulators VEGF and cathepsin D” value in the test with MCF-7 cells [2] is recorded as “below 50 % of the control”.
For the compound `CC/C(=C(\c1ccccc1)c1ccc(OCCN(C)C)cc1)c1ccccc1` [Tamoxifen], the “dosage showing antiproliferative effect on MCF-7 cells” value in the test with MCF-7 cells [1] is listed as “above 0.2 μM/L”.
Consider ceramide 1-phosphate, for which the “antiproliferative effect on MCF-7 cells (dose effect)” value with MCF-7 cells [1] is recorded as “did not”.
The same measure, in the same setting: the same measure for ceramide I: “strong dose dependent antiproliferative effect”.
